Data published in patent publication US20080207705A1, “Heteroaryl-Imidazole Derivatives as Cannabinoid CB1 Receptor Antagonists” (Green Cross Corporation, priority 2007, published 2008).

The molecules below were run against T1, rat CB-1 receptor (Rattus norvegicus, UniProt P20272) (assay: rat CB-1 receptor binding protocol with [3H]CP-55940). Conditions: not given.
T1 construct: The tissue obtained from the brain of SD rats was homogenized; from tissue; host or cells: brain of SD rats (membrane pellet of homogenate)
T1 sequence (P20272 whole entry): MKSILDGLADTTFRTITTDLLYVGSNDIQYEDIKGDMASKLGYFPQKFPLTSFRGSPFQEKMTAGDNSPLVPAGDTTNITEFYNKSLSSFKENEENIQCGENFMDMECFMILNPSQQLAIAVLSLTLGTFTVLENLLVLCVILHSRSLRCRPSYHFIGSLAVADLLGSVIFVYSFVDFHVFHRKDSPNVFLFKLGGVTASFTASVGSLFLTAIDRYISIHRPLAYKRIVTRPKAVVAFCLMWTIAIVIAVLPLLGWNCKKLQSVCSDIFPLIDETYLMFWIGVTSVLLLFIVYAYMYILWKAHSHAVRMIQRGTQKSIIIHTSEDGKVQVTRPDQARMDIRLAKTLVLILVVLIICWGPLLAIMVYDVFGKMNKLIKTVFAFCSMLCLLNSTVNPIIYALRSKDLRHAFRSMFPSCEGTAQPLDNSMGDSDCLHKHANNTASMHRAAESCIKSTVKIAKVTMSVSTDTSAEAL
Molecule `Cc1c(-c2nnc(C(C)(C)C)o2)nc(-c2ccccc2Cl)n1-c1ccc(Br)cc1` [Example 51, 2-(1-(4-Bromophenyl)-2-(2-chlorophenyl)-5-methyl-1H-imidazol-4-yl)-5-tert-butyl-1,3,4-oxadiazole] has an IC50 of 31.7 nM.
For `Cc1c(-c2nnc(C3(C(F)(F)F)CCC3)o2)nc(-c2ccccc2Cl)n1-c1ccc(Br)cc1` [Example 53, 2-(1-(4-Bromophenyl)-2-(2-chlorophenyl)-5-methyl-1H-imidazol-4-yl)-5-(1-(trifluoromethyl)cyclobutyl)-1,3,4-oxadiazole], the IC50 was 11.4 nM.
With `CCc1c(-c2nnc(C3(C(F)(F)F)CCC3)o2)nc(-c2ccccc2Cl)n1-c1ccc(Br)cc1` [Example 57, 2-(1-(4-Bromophenyl)-2-(2-chlorophenyl)-5-ethyl-1H-imidazol-4-yl)-5-(1-(trifluoromethyl)cyclobutyl)-1,3,4-oxadiazole] the IC50 was 13.4 nM.
`CC(C)(C)c1nnc(-c2nc(-c3ccccc3Cl)n(-c3ccc(Br)cc3)c2Cn2cncn2)s1` [Example 168, 2-(5-((1H-1,2,4-Triazol-1-yl)methyl)-1-(4-bromophenyl)-2-(2-chlorophenyl)-1H-imidazol-4-yl)-5-tert-butyl-1,3,4-thiadiazole] showed an IC50 of 4.01 nM.
`CC(C)(C)c1nnc(-c2nc(-c3ccc(Cl)cc3Cl)n(-c3ccc(Cl)cc3)c2C2CC2)s1` [Example 113, 2-tert-Butyl-5-(1-(4-chlorophenyl)-5-cyclopropyl-2-(2,4-dichlorophenyl)-1H-imidazol-4-yl)-1,3,4-thiadiazole] gave an IC50 of 58 nM.
Molecule `Cc1c(-c2nnc(C(C)c3ccccc3)o2)nc(-c2ccc(Cl)cc2Cl)n1-c1ccc(Cl)cc1` (stereo not drawn) [Example 11, 2-(1-(4-Chlorophenyl)-2-(2,4-dichlorophenyl)-5-methyl-1H-imidazol-4-yl)-5-(1-phenylethyl)-1,3,4-oxadiazole] has an IC50 of 31.4 nM.
With `CCc1c(-c2nnc(C3(c4ccc(Cl)cc4Cl)CC3)o2)nc(-c2ccc(Cl)cc2Cl)n1-c1ccc(Br)cc1` [Example 44, 2-(1-(4-Bromophenyl)-2-(2,4-dichlorophenyl)-5-ethyl-1H-imidazol-4-yl)-5-(1-(2,4-dichlorophenyl)cyclopropyl)-1,3,4-oxadiazole] the IC50 was 8.05 nM.

Same assay, conditions: [3H]CP-55940, brain tissue of SD rats, 30 °C for 60 min; read-out: IC50
Molecule `Cc1c(-c2nnc(C(C)C)s2)nc(-c2ccc(Cl)cc2Cl)n1-c1ccc(Cl)cc1` [Example 98, 2-(1-(4-Chlorophenyl)-2-(2,4-dichlorophenyl)-5-methyl-1H-imidazol-4-yl)-5-isopropyl-1,3,4-thiadiazole] has an IC50 of 22.2 nM.
For `CCc1c(-c2nnc(C3(c4ccc(Cl)cc4)CCC3)o2)nc(-c2ccc(Cl)cc2Cl)n1-c1ccc(Br)cc1` [Example 41, 2-(1-(4-Bromophenyl)-2-(2,4-dichlorophenyl)-5-ethyl-1H-imidazol-4-yl)-5-(1-(4-chlorophenyl)cyclobutyl)-1,3,4-oxadiazole], the IC50 was 13.6 nM.
For `CCc1c(-c2nnc(C3(C(F)(F)F)CC3)s2)nc(-c2ccc(Cl)cc2Cl)n1-c1ccc(Br)cc1` [Example 139, 2-(1-(4-Bromophenyl)-2-(2,4-dichlorophenyl)-5-ethyl-1H-imidazol-4-yl)-5-(1-(trifluoromethyl)cyclopropyl)-1,3,4-thiadiazole], the IC50 was 15.9 nM.
In the case of `CCC(C)c1nnc(-c2nc(-c3ccc(Cl)cc3Cl)n(-c3ccc(Cl)cc3)c2C)o1` (stereo not drawn) [Example 8, 2-sec-Butyl-5-(1-(4-chlorophenyl)-2-(2,4-dichlorophenyl)-5-methyl-1H-imidazol-4-yl)-1,3,4-oxadiazole], the IC50 is reported as 39.4 nM.
For `CCc1c(-c2ncc(C(C)(C)C)s2)nc(-c2ccc(Cl)cc2Cl)n1-c1ccc(Br)cc1` [Example 201, 2-(1-(4-Bromophenyl)-2-(2,4-dichlorophenyl)-5-ethyl-1H-imidazol-4-yl)-5-tert-butylthiazole], the IC50 was 10.5 nM.
With `CCCc1c(-c2nnc(C(C)(C)C)o2)nc(-c2ccc(Cl)cc2Cl)n1-c1ccc(Br)cc1` [Example 29, 2-(1-(4-Bromophenyl)-2-(2,4-dichlorophenyl)-5-propyl-1H-imidazol-4-yl)-5-tert-butyl-1,3,4-oxadiazole] the IC50 was 71.5 nM.
Work on `Cc1c(-c2nnc(C3CCCCC3)s2)nc(-c2ccc(Cl)cc2Cl)n1-c1ccc(Br)cc1` [Example 108, 2-(1-(4-Bromophenyl)-2-(2,4-dichlorophenyl)-5-methyl-1H-imidazol-4-yl)-5-cyclohexyl-1,3,4-thiadiazole] yielded an IC50 of 56.6 nM.
Molecule `Clc1ccc(C2(c3nnc(-c4nc(-c5ccc(Cl)cc5Cl)n(-c5ccc(Br)cc5)c4Cn4cncn4)o3)CC2)cc1` [Example 77, 2-(5-((1H-1,2,4-Triazol-1-yl)methyl)-1-(4-bromophenyl)-2-(2,4-dichlorophenyl)-1H-imidazol-4-yl)-5-(1-(4-chlorophenyl)cyclopropyl)-1,3,4-oxadiazole] has an IC50 of 3.36 nM.
`Cc1c(-c2nnc(C(C)(C)C)s2)nc(-c2ccc(Cl)cc2Cl)n1-c1ccc(Br)cc1` [Example 109, 2-(1-(4-Bromophenyl)-2-(2,4-dichlorophenyl)-5-methyl-1H-imidazol-4-yl)-5-tert-butyl-1,3,4-thiadiazole] was tested, and the IC50 was 3.45 nM.
Molecule `CC(C)c1c(-c2nnc(C3(c4ccccc4)CC3)s2)nc(-c2ccc(Cl)cc2Cl)n1-c1ccc(Br)cc1` [Example 116, 2-(1-(4-Bromophenyl)-2-(2,4-dichlorophenyl)-5-isopropyl-1H-imidazol-4-yl)-5-(1-phenylcyclopropyl)-1,3,4-thiadiazole] has an IC50 of 5.66 nM.
`CCc1c(-c2nnc(C3CCC3)s2)nc(-c2ccc(Cl)cc2Cl)n1-c1ccc(Br)cc1` [Example 112, 2-(1-(4-Bromophenyl)-2-(2,4-dichlorophenyl)-5-ethyl-1H-imidazol-4-yl)-5-cyclobutyl-1,3,4-thiadiazole] was tested, and the IC50 was 14 nM.
For `CC(C)(C)c1nnc(-c2nc(-c3ccc(Cl)cc3Cl)n(-c3ccc(Br)cc3)c2Cn2cncn2)s1` [Example 164, 2-(5-((1H-1,2,4-Triazol-1-yl)methyl)-1-(4-bromophenyl)-2-(2,4-dichlorophenyl)-1H-imidazol-4-yl)-5-tert-butyl-1,3,4-thiadiazole], the IC50 was 20.9 nM.
With `CCCc1c(-c2nnc(C3CCC3)s2)nc(-c2ccc(Cl)cc2Cl)n1-c1ccc(Br)cc1` [Example 122, 2-(1-(4-Bromophenyl)-2-(2,4-dichlorophenyl)-5-propyl-1H-imidazol-4-yl)-5-cyclobutyl-1,3,4-thiadiazole] the IC50 was 37.4 nM.
In the case of `CCCCc1cnc(-c2nc(-c3ccc(Cl)cc3Cl)n(-c3ccc(Cl)cc3)c2C)o1` [Example 182, 5-Butyl-2-(1-(4-chlorophenyl)-2-(2,4-dichlorophenyl)-5-methyl-1H-imidazol-4-yl)oxazole], the IC50 is reported as 11.6 nM.
`Cc1c(-c2nc(C(C)(C)C)co2)nc(-c2ccc(Cl)cc2Cl)n1-c1ccc(Cl)cc1` [Example 189, 4-tert-Butyl-2-(1-(4-chlorophenyl)-2-(2,4-dichlorophenyl)-5-methyl-1H-imidazol-4-yl)oxazole] was tested, and the IC50 was 88.3 nM.
`Cc1c(-c2ncc(CC(C)C)s2)nc(-c2ccc(Cl)cc2Cl)n1-c1ccc(Cl)cc1` [Example 197, 2-(1-(4-Chlorophenyl)-2-(2,4-dichlorophenyl)-5-methyl-1H-imidazol-4-yl)-5-isobutylthiazole] showed an IC50 of 46.4 nM.
In the case of `Cc1c(-c2ncc(C(C)(C)C)o2)nc(-c2ccc(Cl)cc2Cl)n1-c1ccc(Br)cc1` [Example 187, 2-(1-(4-Bromophenyl)-2-(2,4-dichlorophenyl)-5-methyl-1H-imidazol-4-yl)-5-tert-butyloxazole], the IC50 is reported as 16.9 nM.
`Clc1ccc(-n2c(-c3ccc(Cl)cc3Cl)nc(-c3nnc(C4(c5ccc(Cl)cc5)CC4)o3)c2Cn2cncn2)cc1` [Example 88, 2-(5-((1H-1,2,4-Triazol-1-yl)methyl)-1-(4-chlorophenyl)-2-(2,4-dichlorophenyl)-1H-imidazol-4-yl)-5-(1-(4-chlorophenyl)cyclopropyl)-1,3,4-oxadiazole] was tested, and the IC50 was 1.53 nM.
`CCc1c(-c2nnc(C3(C(F)(F)F)CCC3)s2)nc(-c2ccc(Cl)cc2Cl)n1-c1ccc(Br)cc1` [Example 140, 2-(1-(4-Bromophenyl)-2-(2,4-dichlorophenyl)-5-ethyl-1H-imidazol-4-yl)-5-(1-(trifluoromethyl)cyclobutyl)-1,3,4-thiadiazole] gave an IC50 of 6.74 nM.
Work on `CCc1c(-c2nnc(C3(c4ccc(Cl)cc4)CCCC3)s2)nc(-c2ccc(Cl)cc2Cl)n1-c1ccc(Br)cc1` [Example 135, 2-(1-(4-Bromophenyl)-2-(2,4-dichlorophenyl)-5-ethyl-1H-imidazol-4-yl)-5-(1-(4-chlorophenyl)cyclopentyl)-1,3,4-thiadiazole] yielded an IC50 of 1.87 nM.
Work on `CCCc1c(-c2nnc(C(C)(C)C)s2)nc(-c2ccc(Cl)cc2Cl)n1-c1ccc(Cl)cc1` [Example 125, 2-tert-Butyl-5-(1-(4-chlorophenyl)-2-(2,4-dichlorophenyl)-5-propyl-1H-imidazol-4-yl)-1,3,4-thiadiazole] yielded an IC50 of 7.94 nM.
Work on `CC(C)c1c(-c2nnc(C3(c4ccccc4)CC3)o2)nc(-c2ccc(Cl)cc2Cl)n1-c1ccc(Cl)cc1` [Example 28, 2-(1-(4-Chlorophenyl)-2-(2,4-dichlorophenyl)-5-isopropyl-1H-imidazol-4-yl)-5-(1-phenylcyclopropyl)-1,3,4-oxadiazole] yielded an IC50 of 15.5 nM.
`CCc1c(-c2nnc(C(C)(C)C)o2)nc(-c2ccccc2Cl)n1-c1ccc(Br)cc1` [Example 55, 2-(1-(4-Bromophenyl)-2-(2-chlorophenyl)-5-ethyl-1H-imidazol-4-yl)-5-tert-butyl-1,3,4-oxadiazole] showed an IC50 of 14.7 nM.
`CCc1c(-c2nnc(C3CCCC3)s2)nc(-c2ccc(Cl)cc2Cl)n1-c1ccc(Cl)cc1` [Example 102, 2-(1-(4-Chlorophenyl)-2-(2,4-dichlorophenyl)-5-ethyl-1H-imidazol-4-yl)-5-cyclopentyl-1,3,4-thiadiazole] showed an IC50 of 17.6 nM.
With `CCCCC(C)c1nnc(-c2nc(-c3ccc(Cl)cc3Cl)n(-c3ccc(Cl)cc3)c2C)o1` (stereo not drawn) [Example 6, 2-(1-(4-Chlorophenyl)-2-(2,4-dichlorophenyl)-5-methyl-1H-imidazol-4-yl)-5-(hexan-2-yl)-1,3,4-oxadiazole] the IC50 was 12.9 nM.
In the case of `FC(F)(F)C1(c2nnc(-c3nc(-c4ccccc4Cl)n(-c4ccc(Br)cc4)c3Cn3cncn3)s2)CC1` [Example 169, 2-(5-((1H-1,2,4-Triazol-1-yl)methyl)-1-(4-bromophenyl)-2-(2-chlorophenyl)-1H-imidazol-4-yl)-5-(1-(trifluoromethyl)cyclopropyl)-1,3,4-thiadiazole], the IC50 is reported as 4.73 nM.
